Data published in article PMC10428205, “Cytotoxicity of Ruthenium(II) Arene Complexes Containing Functionalized Ferrocenyl β-Diketonate Ligands” (Organometallics, 2023).

Experiments:
[1] = test system: HCT116 p53+/+; assay: 96 h MTT chemosensitivity assay; assay type: cell-based, human
Protocol: LogP = Log ( [C]final ) Eqn1
96 h Chemosensitivity Studies
In vitro chemosensitivity tests were performed at both the University of Huddersfield and the Institute of Cancer Therapeutics, Bradford, in a sterile Class II Biological Safety Cabinet fitted with a HEPA filtered laminar airflow.
Cellular assays were conducted against human pancreatic carcinoma (MIA PaCa-2), human colorectal carcinoma p53-wildtype (HCT116 p53+/+), and human non-cancerous epithelial retinal cells (ARPE-19). The ARPE-19 cells were obtained from the American Type Culture Collection and provided by the University of Huddersfield. All cell lines were routinely maintained as monolayer cultures in appropriate complete medium and maintained in either T-25 or T-75 flasks at 37 °C and 5% CO2. MIA PaCa-2 and ARPE-19 cells were cultured in high glucose DMEM-F12 medium containing 10% foetal calf serum, and HCT116 p53+/+ was cultured in RPMI 1640 supplemented with 10% foetal calf serum. All medium was supplemented with sodium pyruvate (1 mM) and L-glutamine (2 mM), and prior to chemosensitivity studies, cell monolayers were passaged using Trypsin-EDTA and diluted to a concentration of 1 x 10^4 cells/mL. All assays were conducted using 96-well plates, in which […] of the 1 x 10^4 cells/mL cell suspension was added to each well and incubated for 24 h at 37 °C and 5% CO2. After 24 h, 100 mL of drug dilutions (fresh 100 mM stock solutions in DMSO) in media were added to the plates and then incubated for a further 96 h at 37°C and 5% CO2 (48 h + 48 h recovery period were used for the shorter exposures with MIA PaCa-2 cells only). After 96 h, 20 mL MTT (3-(4,5-dimethylthiazol-2-yl)-2,5-diphenyltetrazolium bromide, 5 mg/mL) was added to each well and incubated for 3 h at 37 °C and 5% CO2. All solutions were then removed from the 96-well plates via pipette and […] of DMSO added to each well to dissolve the purple formazan crystals. After mixing well, the absorbance of each well was measured at 540 nm using a ThermoFisher Multiskan FC spectrophotometer microplate reader. Using the blank and 100% cell controls, the % cell viability was determined [(abs. of compound containing wells – abs. media wells)/(abs. 100% cell suspension well control)] and from this the % cell death (100%- % cell viability) was calculated. On a logarithmic scale, the percentage cell death was plotted against the concentration of compound, and from this the half maximal inhibitory concentration (IC50) value was determined. Each of the experiments were performed in triplicate with mean values being stated as the IC50 ± Standard Deviation (SD). […]
(§1) All assays were conducted in triplicate.

[2] = Hydrophobicity, octanol-water shake-flask; assay type: physicochemical
Protocol: curves to give an average concentration for shaken samples ([C]final). The concentration of an unshaken sample
of stock solution was determined to give [C]initial. The partition coefficient (LogP) was determined with by Eqn1. […]
as §1

IC50 ([1]; 96 h MTT, ± SD, read-out: IC50 against HCT116 p53+/+): 3.3 ± 0.4 µM | LogP [2]: -2.20 ± 0.20
SMILES: [NH2][Pt]([NH2])([Cl])[Cl] [CDDP, cisplatin, reference compound]
Selectivity index (SI), IC50 ARPE-19 / IC50 HCT116 p53+/+ ([1]; 96 h, * = minimum value as at least one IC50 > 100): 1.8
